Some test systems named below: SK-MEL-2; SN12C; DU-145; NCI-H226; NCI-H23; CAKI-1; Malme-3M; MDA-MB-231; UACC-257; UACC-62; HCT-15; OVCAR-5; RXF 393; TK-10; SF-295; 786-0; SF-539; SK-OV-3; SK-MEL-28; SR.
Common to all, as to assay: NCI-60 cell line screen, 48 h

Molecules are shown by their SMILES.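 The compound was tested at five concentrations on cells cultured in 96-well plates, with a 48-hour exposure period. The concentration for 50% growth inhibition is given as GI50.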 Active and inactive are the calls of the source. Cut-off read from the data, not from the text of the source: active = GI50 up to about 1.1 µM and inactive = higher.

Turning to `Cc1cccc2c1CC(C1OC(=O)c3c(C)cccc31)C2=O` (stereo not drawn), the GI50 in the experiment on SK-MEL-2, with SN12C, in the experiment with DU-145, in the experiment on NCI-H226, with NCI-H23 and in the experiment with CAKI-1 was > 100 µM (inactive) in each case. The GI50 in the experiment on Malme-3M is > 100 µM (inactive); with MDA-MB-231, > 100 µM (inactive); in the experiment on UACC-257, > 100 µM (inactive); with UACC-62, > 100 µM (inactive); in the experiment on HCT-15, above 100 µM; with OVCAR-5 it was > 100 µM (inactive). The GI50 in the experiment on RXF 393, in the experiment on TK-10, with SF-295, with 786-0, in the experiment with SF-539 and in the experiment on SK-OV-3 was > 100 µM (inactive) throughout. Also, the GI50 with SK-MEL-28 and with SR was > 100 µM (inactive) in each case.
As to `COc1ccc(C(O)CNC(=O)c2ccccc2)cc1` (stereo not drawn), the GI50 in the experiment with SK-MEL-2, with SN12C, in the experiment with DU-145, in the experiment on NCI-H226, with NCI-H23 and in the experiment on CAKI-1 was > 100 µM (inactive) each time. For the same compound, the GI50 in the experiment with Malme-3M is > 100 µM (inactive); in the experiment on MDA-MB-231, > 100 µM (inactive); in the experiment on UACC-257, > 100 µM (inactive); with UACC-62, > 100 µM (inactive); in the experiment with HCT-15, above 100 µM; with OVCAR-5 it was > 100 µM (inactive). For the same compound, the GI50 with RXF 393, in the experiment on TK-10, in the experiment with SF-295, in the experiment on 786-0, in the experiment on SF-539 and in the experiment on SK-OV-3 was > 100 µM (inactive) in each case. Moreover, the GI50 in the experiment with SK-MEL-28 and in the experiment on SR was > 100 µM (inactive) in each case.
As to `NC(=O)C(=O)n1ncc(Cl)c(Cl)c1=O`, the GI50 was 23.8 µM (inactive) with SK-MEL-2; 18.6 µM (inactive) in the experiment on SN12C; > 100 µM (inactive) in the experiment with DU-145; > 69.5 µM (inactive) in the experiment with NCI-H226; 32.7 µM (inactive) in the experiment on NCI-H23; 22.8 µM (inactive) in the experiment with CAKI-1. Besides, the GI50 is 17.5 µM (inactive) with Malme-3M; > 10 µM (inactive) with MDA-MB-231; 34 µM (inactive) in the experiment on UACC-257; 31.5 µM (inactive) in the experiment on UACC-62; above 46.9 µM in the experiment with HCT-15; 37.5 µM (inactive) with OVCAR-5. The GI50 in the experiment with RXF 393 was > 23.5 µM (inactive); in the experiment on TK-10, 31.8 µM (inactive); in the experiment on SF-295, 13.6 µM (inactive); in the experiment on 786-0, 22.2 µM (inactive); with SF-539 it was 40.2 µM (inactive); with SK-OV-3 it was > 100 µM (inactive). Also, the GI50 in the experiment with SK-MEL-28 was 23.5 µM (inactive); with SR it was 19.2 µM (inactive).
On to `O=C1CC(c2ccccc2)NCCCCN2CC(CN1)C(C(O)c1ccccc1)C2=O` (stereo not drawn), for which the GI50 in the experiment on SK-MEL-2, in the experiment with SN12C, with DU-145, in the experiment with NCI-H226, in the experiment on NCI-H23 and with CAKI-1 was > 100 µM (inactive) throughout. The GI50 in the experiment on Malme-3M is > 100 µM (inactive); in the experiment with MDA-MB-231 it was > 100 µM (inactive); with UACC-257, > 100 µM (inactive); with UACC-62, > 100 µM (inactive); with HCT-15, above 100 µM; with OVCAR-5 it was > 100 µM (inactive). For the same compound, the GI50 in the experiment on RXF 393, in the experiment with TK-10, with SF-295, in the experiment on 786-0, with SF-539 and in the experiment with SK-OV-3 was > 100 µM (inactive) in each case. The GI50 in the experiment with SK-MEL-28 and with SR was > 100 µM (inactive) in each case.
Turning to `CCOC(=O)C(=CNc1ccc(N(C2=NCC(C)S2)c2ccc(F)c(Cl)c2)cc1)C(=O)OCC` (stereo not drawn), the GI50 was 20.4 µM (inactive) in the experiment with SK-MEL-2; 17.9 µM (inactive) with SN12C; 17.6 µM (inactive) in the experiment on DU-145; 18.1 µM (inactive) in the experiment on NCI-H226; 17.5 µM (inactive) in the experiment with NCI-H23; 39.2 µM (inactive) with CAKI-1. Besides, the GI50 in the experiment with Malme-3M is 20.8 µM (inactive); with MDA-MB-231, 14.5 µM (inactive); with UACC-257, 17.1 µM (inactive); in the experiment on HCT-15 it was 18.8 µM; in the experiment on OVCAR-5, 19.6 µM (inactive); in the experiment on RXF 393 it was 6.05 µM (inactive). For the same compound, the GI50 in the experiment on TK-10 is 21.8 µM (inactive); in the experiment with SF-295, 25.4 µM (inactive); in the experiment on 786-0, 16.2 µM (inactive); in the experiment on SF-539, 25.6 µM (inactive); in the experiment on SK-OV-3 it was 21.9 µM (inactive); in the experiment on SK-MEL-28, 18.7 µM (inactive). Also, the GI50 in the experiment on SR is 21.8 µM (inactive).
In the case of `COc1cc(/C=C2\C(=O)N(c3ccccc3)C(c3ccccc3)S2(=O)=O)cc(OC)c1OC` (stereo not drawn), the GI50 in the experiment with SK-MEL-2 is 42.6 µM (inactive); with SN12C, 39.4 µM (inactive); in the experiment with DU-145 it was 37.9 µM (inactive); in the experiment with NCI-H226 it was 46.8 µM (inactive); with NCI-H23, 39.1 µM (inactive); in the experiment on CAKI-1 it was 88.7 µM (inactive). Besides, the GI50 was 53.1 µM (inactive) with Malme-3M; 97.5 µM (inactive) in the experiment with MDA-MB-231; 32.1 µM (inactive) in the experiment on UACC-257; 30.1 µM (inactive) in the experiment with UACC-62; 37.9 µM with HCT-15; > 100 µM (inactive) with OVCAR-5. Further, the GI50 with RXF 393 is 17.1 µM (inactive); in the experiment with TK-10 it was 65 µM (inactive); in the experiment with SF-295, > 100 µM (inactive); in the experiment on 786-0 it was 69.5 µM (inactive); in the experiment with SF-539, 45.1 µM (inactive); in the experiment on SK-OV-3 it was 62.7 µM (inactive). In addition, the GI50 in the experiment with SK-MEL-28 was 51.6 µM (inactive); in the experiment on SR, 24.5 µM (inactive).
As for `Nc1ncnc2c1ncn2C1OC(COP(=O)(O)CP(=O)(O)O)C(O)C1O` (stereo not drawn), the GI50 in the experiment on SK-MEL-2, in the experiment with SN12C, in the experiment on DU-145, in the experiment with NCI-H226, in the experiment on NCI-H23 and in the experiment on CAKI-1 was > 100 µM (inactive) in each case. Besides, the GI50 with Malme-3M was > 100 µM (inactive); in the experiment with MDA-MB-231 it was > 10 µM (inactive); with UACC-257, > 100 µM (inactive); in the experiment with UACC-62, > 100 µM (inactive); in the experiment on HCT-15, above 100 µM; in the experiment with OVCAR-5 it was > 100 µM (inactive). Further, the GI50 with RXF 393, in the experiment on TK-10, in the experiment on SF-295, with 786-0, with SF-539 and in the experiment on SK-OV-3 was > 100 µM (inactive) throughout. Further, the GI50 with SK-MEL-28 and in the experiment with SR was > 100 µM (inactive) in each case.
On to `CCOC(=O)c1nc2cc(F)c(N3CCOCC3)cc2[nH]c1=O`, for which the GI50 in the experiment with SK-MEL-2 is > 100 µM (inactive); in the experiment with SN12C, > 100 µM (inactive); in the experiment on DU-145, > 100 µM (inactive); in the experiment on NCI-H226, 90.8 µM (inactive); with NCI-H23, > 100 µM (inactive); in the experiment on CAKI-1, > 100 µM (inactive). Also, the GI50 was > 100 µM (inactive) in the experiment on Malme-3M; > 100 µM (inactive) with MDA-MB-231; > 100 µM (inactive) in the experiment on UACC-257; > 100 µM (inactive) in the experiment with UACC-62; above 100 µM in the experiment with HCT-15; > 100 µM (inactive) in the experiment on OVCAR-5. Besides, the GI50 with RXF 393, in the experiment with TK-10, with SF-295, in the experiment on 786-0, in the experiment with SF-539 and in the experiment with SK-OV-3 was > 100 µM (inactive) each time. Further, the figures for the GI50 with SK-MEL-28 and with SR were > 100 µM (inactive) and 36.3 µM (inactive), respectively.
Take `CC(C)OC(=O)c1ccc(NCc2cc(O)ccc2O)cc1`: the GI50 in the experiment with SK-MEL-2 was 10.9 µM (inactive); in the experiment with SN12C it was 1.71 µM (inactive); in the experiment on DU-145, 6.11 µM (inactive); in the experiment with NCI-H226, 3.21 µM (inactive); in the experiment on NCI-H23, 4.36 µM (inactive); in the experiment with CAKI-1 it was 1.28 µM (inactive). Besides, the GI50 was 2.16 µM (inactive) in the experiment on Malme-3M; 2.2 µM (inactive) in the experiment on MDA-MB-231; 10.3 µM (inactive) in the experiment on UACC-257; 10.6 µM (inactive) in the experiment on UACC-62; 2.69 µM with HCT-15; 10.4 µM (inactive) in the experiment on OVCAR-5. For the same compound, the GI50 in the experiment on RXF 393 is 1.32 µM (inactive); with TK-10, 4.53 µM (inactive); with SF-295, 6.3 µM (inactive); in the experiment on 786-0, 2.84 µM (inactive); in the experiment with SF-539 it was 1.53 µM (inactive); in the experiment with SK-OV-3, 17.3 µM (inactive). Further, the GI50 with SK-MEL-28 is 8 µM (inactive); in the experiment on SR it was 1.06 µM (active).
On to `CC(C)C[C@H](NC(=O)CCc1ccccc1)B(O)O`, for which the GI50 in the experiment with SK-MEL-2 is 12.7 µM (inactive); in the experiment on SN12C, 16.8 µM (inactive); in the experiment on DU-145, 60.8 µM (inactive); in the experiment on NCI-H226, 1.62 µM (inactive); in the experiment on NCI-H23 it was 16.5 µM (inactive); with CAKI-1, 5.08 µM (inactive). For the same compound, the GI50 in the experiment on Malme-3M was 11.7 µM (inactive); in the experiment with MDA-MB-231, 17.7 µM (inactive); in the experiment on UACC-257, 12.5 µM (inactive); in the experiment with UACC-62, 14.8 µM (inactive); with HCT-15, 17.3 µM; with OVCAR-5, 13.6 µM (inactive). The GI50 was 5.66 µM (inactive) with RXF 393; 8.97 µM (inactive) in the experiment on TK-10; 12 µM (inactive) with SF-295; 12.3 µM (inactive) in the experiment on 786-0; 4.54 µM (inactive) with SF-539; 11 µM (inactive) with SK-MEL-28. The GI50 in the experiment on SR is 2.72 µM (inactive).

The values above are taken from ChEMBL document CHEMBL1201862, “PubChem BioAssay data set” (2004).
